Results on four compounds are retold here after patent US4698355A, “Anti-hypertensive agents” (University of Miami, priority 1979, dated 1987).

Non-standard residues stand in square brackets, D forms with d. Residues, ends and D or L forms follow the SMILES beside them. No end group written: not given here. *: point of attachment. pGlu = O=C1CC[C@@H](C(=O)O)N1; Bz = O=C(c1ccccc1)*

For one assay, the system named is ACE. The following applies: cited from earlier work.
For a further assay, the system named is human urinary ACE. As to the kind of experiment: ACE activity assay (Benzoyl-GlyHisLeu substrate). Type of assay: biochemical. The following applies: 0.05 M Hepes pH 8.0, 37° C. From the text: The role of ACE in the pathogenesis of hypertension has prompted a search for inhibitors of the enzyme that could act as antihypertensive drugs. See for example U.S. Pat. Nos. 3,891,616, 3,947,575, 4,052,511 and 4,053,651. […] 6, 1977, and in scientific articles by Cushman, D. W. et al., Biochemistry 16, 5484 (1977), and by Ondetti, M. et al., Science 196, 441 (1977). […] These factors include the source of enzyme, its purity, the substrate used and its concentration, and the composition of the assay buffer. All I50 data reported herein have been performed with the same assay system and same enzyme (human urinary ACE) and with an approximately 1/2 Km level of substrate and are therefore internally consistent. Discrepancies with data obtained by other workers may be observed. Indeed such discrepancies do exist in the literature, for unknown reasons. See, for example, the I50 values for BPP9a reported by Cushman, D. W., et al., Experientia 29, 1032 (1973) and by Dorer, F. E., et al., Biochim. Biophys. Acta 429, 220 (1976).
ACE activity assay. For most experiments described herein, the enzyme was assayed in 0.05 M Hepes buffer, pH 8.0 containing 0.1 M NaCl and 0.75 M Na2 SO4. […] Enzyme was diluted in the above buffer such that 40 μl buffered enzyme was capable of hydrolyzing 13% of substrate in a 15-minute incubation at 37° C. […]

For assay [1], the system named is angiotensin I. As to the kind of experiment: Oral effectiveness: blood pressure response to angiotensin I in anesthetized rats. Format: in vivo, rat. The following applies: oral 20 μmol/kg. The method, then:
(§1) Rats (210-290 g body weight) were fasted overnight and then anesthetized with intraperitoneal pentobarbital, 50-60 mg/kg. Tracheostomy was performed and the animals were ventilated mechanically. A cannula was inserted into a femoral vein for injection of angiotensin I, and a second cannula was inserted into a common carotid artery for direct measurement of arterial blood pressure. Heparin, 1,000 units, was injected via the femoral vein to prevent coagulation. Blood pressure was measured with a pressure transducer connected to a polygraph. The rats were injected with […] of angiotensin I in 20 μl of 0.9 g % NaCl; an amount of angiotensin I sufficient to raise mean arterial blood pressure by 38 mm Hg. After the responsiveness of a given rat to angiotensin I was established, the named compound at 20 μmol/kg (drug dissolved in 0.15 ml of H2 O plus 10 μl of 1 N NaHCO3), was given via a stomach tube. At timed intervals, the effects of 400 ng/kg of angiotensin I on mean arterial blood pressure were tested.

Assay [2] has as its system angiotensin I. As to the kind of experiment: Intravenous effectiveness: blood pressure response to angiotensin I in anesthetized rats. Type of assay: in vivo, rat. The following applies: intravenous 2 μmol/kg. As for the experimental part:
as §1, with “tested. Results are shown below:” for “tested.”
Anesthetized rats were prepared as described in Example 18. After the control reponse to 400 ng/kg angiotensin I was measured for a given rat, the named compound was administered via a femoral vein. The dose was 2 μmol/kg of the named compound in 15 μl 0.01 N sodium bicarbonate. The results are shown as percent of the control response.

Consider `C[C@H](NC(=O)[C@H](Cc1c[nH]c2ccccc12)NC(=O)[C@H](CCCCN)NC(=O)[C@@H]1CCC(=O)N1)C(=O)N1CCC[C@H]1C(=O)O` [BPP5a, <GluLysTrpAlaPro] ([pGlu]KWAP-OH), for which the “Km relative to angiotensin I (competitive substrate)” value with ACE is given as “lower Km than angiotensin I”.
As for `CC(C)C[C@H](NC(=O)[C@H](Cc1cnc[nH]1)NC(=O)CNC(=O)c1ccccc1)C(=O)O` [Benzoyl-GlyHisLeu] (Bz-Gly-His-Leu-OH), the Km in the assay with human urinary ACE is ~200 µM.
Consider RPPGFSPFR [bradykinin], for which the “Km relative to angiotensin I (competitive substrate)” value in the assay on ACE was “lower Km than angiotensin I”.
For the compound `C[C@H](CSC(=O)[C@H](Cc1ccccc1)NC(=O)[C@@H]1CCC(=O)N1)C(=O)N1CCC[C@H]1C(=O)O` [Example 15, N^α - [3-(Pyro-L-glutamyl-L-phenylalanylthio)-2-D-methylpropanoyl]-L-proline], the “Blood pressure response to 400 ng/kg of Angiotensin I” value is recorded as 66 % of Control in the assay on angiotensin I [1] (5 min); 26 % of Control with angiotensin I [1] (15 min); 26 % of Control with angiotensin I [1] (18 min); 21 % of Control in the assay with angiotensin I [1] (21 min); 21 % of Control in the assay with angiotensin I [1] (25 min); 24 % of Control with angiotensin I [1] (29 min). Moreover, the “Blood pressure response to 400 ng/kg of Angiotensin I” value was 18 % of Control in the assay on angiotensin I [1] (39 min); 16 % of Control with angiotensin I [1] (44 min); 16 % of Control in the assay with angiotensin I [1] (49 min); 18 % of Control in the assay with angiotensin I [1] (54 min); 18 % of Control in the assay with angiotensin I [1] (60 min); 18 % of Control in the assay on angiotensin I [1] (74 min). Moreover, the “Blood pressure response to 400 ng/kg of Angiotensin I” value is given as 21 % of Control in the assay with angiotensin I [1] (86 min); 21 % of Control with angiotensin I [1] (110 min); 26 % of Control in the assay with angiotensin I [1] (120 min); 26 % of Control in the assay on angiotensin I [1] (132 min); 26 % of Control in the assay on angiotensin I [1] (142 min); 53 % of Control in the assay with angiotensin I [1] (+1 min). Further, the “Blood pressure response to 400 ng/kg angiotensin I” value is recorded as 18 % of control in the assay with angiotensin I [2] (5 min); 21 % of control with angiotensin I [2] (11 min); 24 % of control with angiotensin I [2] (14 min); 29 % of control in the assay with angiotensin I [2] (17 min); 34 % of control with angiotensin I [2] (20 min); 42 % of control with angiotensin I [2] (24 min). Moreover, the “Blood pressure response to 400 ng/kg angiotensin I” value with angiotensin I [2] (32 min) is given as 47 % of control; in the assay on angiotensin I [2] (43 min) it was 53 % of control; with angiotensin I [2] (49 min), 58 % of control; in the assay with angiotensin I [2] (56 min), 61 % of control; with angiotensin I [2] (71 min), 71 % of control; in the assay on angiotensin I [2] (76 min), 68 % of control. Also, the “Blood pressure response to 400 ng/kg angiotensin I” value in the assay on angiotensin I [2] (88 min) is on record as 76 % of control; in the assay with angiotensin I [2] (99 min) it was 76 % of control; in the assay on angiotensin I [2] (109 min), 74 % of control; in the assay with angiotensin I [2] (125 min), 84 % of control; with angiotensin I [2] (+1/2 min (30 sec.)), 8 % of control.
